According to patent US4207326A, “Antimicrobial quaternary pyrazole derivatives” (Cilag-Chemie A.G., priority 1979, dated 1980):
Read-outs that look alike come from different tables or passages of the source.

Assays:
[1] = system: S. schenkii; assay: Antifungal activity: Minimum Inhibitory Concentration; assay type: cell-based, Sporotrichon schenkii NCPF 3182; details: for MIC: read-out: Minimum Inhibitory Concentration
Procedure: (§1) The antimicrobial activity was determined by inoculation of the test microorganism into suitable growth media containing solutions of the compounds at concentrations of 100, 50, 10, 5, 1.0, 0.5 and 0.1 μg/ml. The reference antibiotics used were Gentamicin for the antibacterial tests and Amphotericin B for the antimycotic and antifungal tests. After incubation the antimicrobial activity was recorded as the Minimal Inhibitory Concentration (M.I.C.), i.e., the lowest concentration preventing macroscopically visible growth, for each test compound against each organism.
(§2) An initial solution of each formula (I) compound to be tested in sterile distilled water was prepared at a concentration of 1000 μg/ml. With appropriate dilutions using sterile distilled water, additional solutions were prepared at concentrations of 500, 100, 50, 10, 5 and 1 μg/ml.
The A. corymbifera, A. fumigatus, S. schenkii, T. rubrum, T. mentagrophytes, M. canis and P. verrucosa strains were all maintained on Sabouraud-Dextrose Agar (Oxoid CM 41) by incubating for 14 days at 27° C. To prepare the inocula 30 ml volumes of Sabouraud-Liquid medium (Oxoid CM 147) were inoculated from the agar cultures and incubated at 27° C. until heavy uniform growth resulted. The mycelial growth was then broken up by shaking with glass beads.
1 Ml aliquots were removed from each of the cultures for the purpose of making viable counts and the cultures were then held at 4° C. The viable counts were made by preparing serial ten-fold dilutions of the cultures in sterile physiological saline and spreading on plates of Sabouraud-Dextrose Agar (Oxoid CM 41) which were then incubated at 27° C. for 14 days. When the viable counts had confirmed that each of the inocula contained approximately 10^6 colony forming units (C.F.U.) per ml the cultures were withdrawn from the refrigerator and used as the inocula for the tests.
(c) For the tests on each of the remaining seven strains and each of the test and reference compounds, a series of 8 tubes containing 4.5 ml volumes of Sabouraud-Liquid Medium (Oxoid CM 147) were prepared. To 7 of these were added 0.5 ml volumes of the final solutions of the test compounds, giving final concentrations in the broths of 100, 50, 10, 5, 1.0, 0.5 and 0.1 μg/ml. To the eighth tube in each series was added 0.5 ml of the solvent used and diluted as for the preparation of the 500 μg/ml solution of the compound. This tube was used as a growth control. The tubes were then inoculated with 0.1 ml aliquots of the inocula prepared as in "(b) Fungi" above. The tubes were then incubated at 27° C. with continuous shaking for a period of one week. The tubes were then examined for evidence of growth as shown by the presence of mycelial growth in the medium and the lowest concentration of the test compound which prevented fungal growth was recorded as the Minimal Inhibitory Concentration. This test procedure was carried out on two separate days.

[2] = system: S. pyogenes; assay: Antibacterial activity: Minimum Inhibitory Concentration; assay type: cell-based, Streptococcus pyogenes NCTC 8198; details: 24 hours; for MIC: Streptococcus pyogenes
Procedure: as §1, §2
They were cultured and maintained on Tryptone Soy Agar (Oxoid CM 131), with the addition of 10% horse blood for the S. pyogenes.
To prepare the organisms as inocula for the test, slopes of this medium were streaked with the organisms and incubated at 37° C. for 24 hours. 4.5 Ml volumes of Brian-Heart Infusion Broth (Oxoid CM 225) were then inoculated with a platinum loop from the agar slope cultures and incubated for 24 hours at 37° C. The final inocula were then prepared by adding 0.1 ml aliquots of the Brain-Heart Infusion Broth cultures to 100 ml volumes of sterile physiological saline.
(a) For the test on each of the bacterial strains and each of the test and reference compounds, a series of 8 tubes containing 4.5 ml volumes of Brain-Heart Infusion Broth (Oxoid CM 225) were prepared. To 7 of these were added 0.5 ml volumes of the final solutions of the test compouns, giving final concentrations in the broths of 100, 50, 10, 5, 1.0, 0.5 and 0.1 μg/ml. To the eighth tube in each series was added 0.5 ml of the solvent used and diluted as for the preparation of the 1000 μg/ml solution of the compound. This tube was used as the growth control. The tubes were inoculated with 0.02 ml aliquots of the inocula prepared in accordance with "(a) Bacteria" above, and incubated at 37° C. for 24 hours. The tubes were then examined for evidence of bacterial growth as shown by turbidity of the medium and the lowest concentration of the test compound which prevented bacterial growth was recorded as the Minimal Inhibitory Concentration. This test procedure was carried out on two separate days.

[3] = system: Algae (diatoms, green and blue algae); assay: Algicidal activity in 350 liter concrete pools under outdoor conditions; details: for killing at 1 µg/mL: 1 mg/l water; for killing at 2 µg/mL: 2 mg/l water; for killing at 4 µg/mL: 4 mg/l water
Text: A comparison of the algicidic activity of the preferred compound, 1-hexadecyl-2,3,5-trimethyl-pyrazolium methosulfate, with said standard is shown in Table 4.
Results given above are mean values from 2 replicates of
Test conditions: Severe with high infection pressure after artificial
algae inoculation in 350 liter concrete pools under outdoor conditions.
Stains included: Green algae: Chlorella, Zygnema, Hormidium + Scenedesmus
Blue algae: Phormidium species
Diatoms: Nitzschea pallea
Water temperature: Day: 21° C., night: 18°-20° C.

[4] = S. schenkii, Day 1, 27° C., one week
[5] = S. schenkii, Day 2, 27° C., one week
[6] = mean over weeks 1-6, read-out: % algicidal activity, --x (mean)
[7] = 168 h, 1 week after treatment, mean of 2 replicates, read-out: % algicidal activity
[8] = 336 h, 2 weeks after treatment, mean of 2 replicates, read-out: % algicidal activity
[9] = 504 h, 3 weeks after treatment, mean of 2 replicates, read-out: % algicidal activity
[10] = 672 h, 4 weeks after treatment, mean of 2 replicates, read-out: % algicidal activity
[11] = 840 h, 5 weeks after treatment, mean of 2 replicates, read-out: % algicidal activity
[12] = 1008 h, 6 weeks after treatment, mean of 2 replicates, read-out: % algicidal activity

Molecule | MIC [1, 4] | MIC [1, 5] | MIC ([2]; Day 1, 37° C.) | MIC ([2]; Day 2, 37° C.) | other results
CCCCCCCCCCCCn1c(C)cc(C)[n+]1C [Example 1, 1-dodecyl-2,3,5-trimethyl-pyrazolium methosulfate] | 50 µg/mL | 10 µg/mL | 1 µg/mL | 0.5 µg/mL | 
2,3(5)-dimethyl-1-dodecyl-pyrazolium methosulfate [Example 8-A] |  |  |  |  | Minimum Inhibitory Concentration [1, 4]: 10 µg/mL; Minimum Inhibitory Concentration [1, 5]: 10 µg/mL; Minimum Inhibitory Concentration ([2]; Day 1, 37° C.): 5 µg/mL; Minimum Inhibitory Concentration ([2]; Day 2, 37° C.): 5 µg/mL
CCCCCCCCCCCC[n+]1c(C)cc(C)n1Cc1ccc(Cl)cc1.[Br-] [Example 6-E, 2-(p-chlorobenzyl)-3,5-dimethyl-1-dodecyl-pyrazolium bromide] | 5 µg/mL | 1 µg/mL | 0.5 µg/mL | 0.5 µg/mL | 
2,3(5)-dimethyl-1-hexadecyl-pyrazolium methosulfate [Example 9] |  |  |  |  | Minimum Inhibitory Concentration [1, 4]: 5 µg/mL; Minimum Inhibitory Concentration [1, 5]: 5 µg/mL; Minimum Inhibitory Concentration ([2]; Day 1, 37° C.): 0.5 µg/mL; Minimum Inhibitory Concentration ([2]; Day 2, 37° C.): 0.5 µg/mL
CCCCCCCCCCCCCCn1ccc[n+]1C [Example 3-G, 2-methyl-1-tetradecyl-pyrazolium methosulfate] | 5 µg/mL | 10 µg/mL | 0.5 µg/mL | 0.5 µg/mL | 
CCCCCCCCCCCC[n+]1c(C)cc(C)n1Cc1ccc(Cl)cc1Cl.[Br-] [Example 6-B, 2-(2,4-dichlorobenzyl)-3,5-dimethyl-1-dodecyl-pyrazolium bromide] | 1 µg/mL | 1 µg/mL | 0.5 µg/mL | 0.5 µg/mL | 
C=CCn1c(C)cc(C)[n+]1CCCCCCCCCCCCCCCC.[Br-] [Example 7, 2-allyl-3,5-dimethyl-1-hexadecyl-pyrazoliumbromide] | 5 µg/mL | 5 µg/mL | 0.5 µg/mL | 0.5 µg/mL | 
CCCCCCCCCCCCn1ccc[n+]1C [Example 3-E, 1-dodecyl-2-methy-pyrazolium methosulfate] | 50 µg/mL | 10 µg/mL | 5 µg/mL | 5 µg/mL | 
CCCCCCCCCCCCCCCC[n+]1c(C)cc(C)n1C.Cc1ccc(S(=O)(=O)[O-])cc1 [Example 6-C, 1-hexadecyl-2,3,5-trimethylpyrazolium p-toluene sulfonate] |  |  |  |  | Minimum Inhibitory Concentration [1, 5]: 5 µg/mL; MIC [1]: 5 µg/mL
CCCCCCCCCCCCCC[n+]1c(C)cc(C)n1Cc1ccc([N+](=O)[O-])cc1.[Br-] [Example 6-D, 3,5-dimethyl-2(4-nitrobenzyl)-1-tetradecyl-pyrazolium bromide] | 5 µg/mL | 5 µg/mL | 0.5 µg/mL | 1 µg/mL | 
CCCCCCCCCCCCCCCCn1c(C)cc(C)[n+]1C [Example 2, 1-hexadecyl-2,3,5-trimethyl-pyrazolium methosulfate] | 10 µg/mL | 10 µg/mL | 0.5 µg/mL | 0.5 µg/mL | killing at 1 µg/mL [3, 6]: 96%; killing at 2 µg/mL [3, 6]: 99%; killing at 4 µg/mL [3, 6]: 100%; killing at 1 µg/mL [3, 7]: 100%; killing at 2 µg/mL [3, 7]: 100%; killing at 4 µg/mL [3, 7]: 100%; killing at 1 µg/mL [3, 8]: 100%; killing at 2 µg/mL [3, 8]: 100%; killing at 4 µg/mL [3, 8]: 100%; killing at 2 µg/mL [3, 9]: 100%; killing at 4 µg/mL [3, 9]: 100%; killing at 1 µg/mL [3, 10]: 96%; killing at 2 µg/mL [3, 10]: 100%; killing at 4 µg/mL [3, 10]: 100%; killing at 1 µg/mL [3, 11]: 93%; killing at 2 µg/mL [3, 11]: 100%; killing at 4 µg/mL [3, 11]: 100%; killing at 1 µg/mL [3, 12]: 88%; killing at 2 µg/mL [3, 12]: 98%; killing at 4 µg/mL [3, 12]: 100%
CCCCCCCCCCCCCCCCn1ccc[n+]1C [Example 3-D, 1-hexadecyl-2-methyl-pyrazolium methosulfate] | 5 µg/mL | 10 µg/mL | 0.5 µg/mL | 0.5 µg/mL | 
